The text below walks through data of patent US5863946A, “Iminoxyderivatives of fenamates as inhibitors of prostaglandin biosynthesis” (Abbott Laboratories, priority 1996, dated 1999).

Assay [1] deals with prostaglandin endoperoxide H synthase 1 (PGHS-1). Particulars: reported in literature; cited from earlier work.
Assay [2] has as its system prostaglandin endoperoxide H synthase 2 (PGHS-2). The settings on record: reported in literature; cited from earlier work.
In a further assay the test system is recombinant human PGHS-2. The experiment in a line: Inhibition of PGE2 production by recombinant human PGHS-2 (microsomes, baculovirus/Sf9; EIA). Type of assay: biochemical. The settings on record: human recombinant PGHS-2, 60 min preincubation, 10 μM arachidonic acid, 2.5 min. Here is the method:
(§1) Inhibition of prostaglandin biosynthesis was evaluated in recombinant human PGHS-1 and PGHS-2 enzyme assays. Representative compounds dissolved in DMSO (3.3% v/v) were preincubated with microsomes from recombinant human PGHS-1 or PGHS-2 expressed in the baculovirus/Sf9 cell system (Gierse, J. K., Hauser, […]., and Seibert, K. […] The reaction was allowed to run for 2.5 minutes at room temperature prior to quenching with HCl and neutralization with NaOH. PGE2 production in the presence and absence of the drug was determined by EIA analysis. The EIA was conducted in 96 well microtiter plates (Nunc Roskilde, Denmark) and optical density measured using a microplate reader (Vmax, Molecular Devices Corp., Menlo Park, Calif.). EIA reagents for prostaglandin determination were purchased from Perseptive Diagnostics, Cambridge, Mass. PGE2 levels were measured against standards prepared in the same milieu. The immunoassays were conducted as recommended by the manufacturer.

The next assay addresses T1, recombinant human PGHS-1 (Homo sapiens, UniProt P23219).
T1 construct: made in house; host or cells: baculovirus/Sf9 insect cells (microsomes)
The experiment in a line: Inhibition of PGE2 production by recombinant human PGHS-1 (microsomes, baculovirus/Sf9; EIA). The settings on record: human recombinant PGHS-1; 60 min preincubation; 10 μM arachidonic acid, 2.5 min. It is filed as biochemical. As for the experimental part:
as §1

T1 sequence (P23219 24-599): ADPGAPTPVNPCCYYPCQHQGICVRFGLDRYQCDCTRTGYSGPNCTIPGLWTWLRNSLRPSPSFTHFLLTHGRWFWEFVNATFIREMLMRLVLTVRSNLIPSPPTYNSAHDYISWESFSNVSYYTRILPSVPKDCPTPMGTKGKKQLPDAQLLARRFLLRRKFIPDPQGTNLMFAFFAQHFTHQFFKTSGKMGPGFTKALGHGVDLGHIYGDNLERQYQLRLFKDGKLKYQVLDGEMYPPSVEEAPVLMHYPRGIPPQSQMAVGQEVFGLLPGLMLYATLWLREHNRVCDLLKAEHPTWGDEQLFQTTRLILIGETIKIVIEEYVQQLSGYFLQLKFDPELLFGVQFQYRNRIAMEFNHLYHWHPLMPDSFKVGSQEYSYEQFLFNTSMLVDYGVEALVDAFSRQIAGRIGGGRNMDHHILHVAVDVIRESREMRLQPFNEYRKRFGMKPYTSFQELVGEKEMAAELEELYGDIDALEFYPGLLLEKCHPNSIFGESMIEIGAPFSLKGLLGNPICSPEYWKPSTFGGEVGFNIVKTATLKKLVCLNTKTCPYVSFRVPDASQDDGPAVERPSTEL

For `Cc1ccc(Cl)c(Nc2ccccc2C(=O)O)c1Cl` [Meclofenamic acid], the “inhibition of PGHS-1” value in assay [1] is “inhibit both PGHS-1 and PGHS-2”. The “inhibition of PGHS-2” value in assay [2] is “inhibit both PGHS-1 and PGHS-2”.
In the case of `Cc1ccc(Cl)c(Nc2ccccc2CON=CC(=O)O)c1Cl` [Example 1, glyoxylic acid-O-[2-(2,6-dichloro-3-methylphenylamino)phenylmethyl] oxime], the “PGHS-2 % Inhibition” value in the assay on recombinant human PGHS-2 (@ 0.1 μM) is listed as 68%. Also, on recombinant human PGHS-1, the IC50 (commonly the concentration at which inhibition is half-maximal) turned out to be 6 µM.
In the case of `CC(=NOCc1ccccc1Nc1c(Cl)ccc(C)c1Cl)C(=O)O` [Example 2, pyruvic acid-O-[2-[(2,6-dichloro-3-methylphenyl)amino]phenylmethyl] oxime], the “PGHS-2 % Inhibition” value with recombinant human PGHS-2 (@ 1.0 μM) was found to be 28%. Moreover, the half-inhibitory concentration (IC50) at recombinant human PGHS-1 is 61.1 µM.
Consider `COc1ccc2cc([C@H](C)C(=O)O)ccc2c1` [naproxen], for which, in assay [1], the “inhibition of PGHS-1” value is reported as “inhibit both isozymes”. Moreover, the “inhibition of PGHS-2” value in assay [2] is “inhibit both isozymes”.
On to `CC(C)Cc1ccc(C(C)C(=O)O)cc1` (stereo not shown) [ibuprofen], for which the “inhibition of PGHS-1” value in assay [1] is recorded as “inhibit both isozymes”. Besides, the “inhibition of PGHS-2” value in assay [2] is reported as “inhibit both isozymes”.
